We go through six compounds from patent US4654348A, “Pyrazolo[4,3-d]pyrimidine derivative, process for its production, antihyperlipidemic agent containing it, its intermediate, and process for the production of the intermediate” (Nissan Chemical Industries Ltd., priority 1984, dated 1987).

Structures are written as SMILES.

Data set [1] concerns emulsion-induced hyperlipidemic rats. Nature of the data set: Test 1: antihyperlipidemic activity in emulsion-induced hyperlipidemic rats (serum Chol, HDL-Chol, liver weight). In kind it is in vivo, male S.D. rats. The conditions noted are these: 3 days, vs control; for Degree of hepatomegaly (change rate of the liver weight): liver weight per 100 g body weight, 300 mg/kg/day; for change in vivo at 300 mg/kg / inhibition in vivo at 300 mg/kg: Rattus norvegicus, po, 72 h; for change in vivo at 300 mg/kg: read-out: Increase rate of serum HDL-Chol; for inhibition in vivo at 300 mg/kg: read-out: Reduction rate of serum Chol. Here is the method:
The antihyperlipidemic activity in emulsion-induced hyperlipidemic rats:
Male S.D. rats weighing 80-90 g (4 weeks old) were used. They were divided into groups of 5 to 6 rats each. The test compounds suspended in 0.5% CMC-Na(carboxymethyl cellulose sodium salt) were given to the rats in a daily dose of 4 ml/kg (i.e. 300 mg/kg of the test compounds) via stomach tube every 10:00 a.m. After 30 min., lipids emulsion having the following composition was orally given to the rats in an amount of 2.5 ml per rat.
Cholic acid sodium salt 10.0 g
During the experimental period of 3 days, the rats were fed on a standard commercial diet and water ad libitum. […] The total cholesterol and HDL cholesterol were measured.
The weight of the liver was measured. To the control group, only the aqueous CMC-Na solution and the lipids emulsion were given.
The fractionation of lipoproteins was conducted by a dextran sulfate-MgCl2 precipitation method.
Cholesterol in serum was measured by means of a cholesterol measuring kit (Cholesterol C-Test Wako, manufactured by Wako Junyaku Co., Ltd.), and cholesterol in HDL was measured by means of NC Hi-Set, manufactured by Nippon Chemiphar Co., Ltd.
Further, the reduction rate of Chol was calculated by the following equation. [formula] where A is the amount of serum Chol (mg/dl) of the control group, and B is the amount of serum Chol (mg/dl) of the group to which the therapeutic agent was administered.
Likewise, the increase rate of HDL-Chol was calculated by the following equation. [formula] where C is the amount of serum HDL-Chol (mg/dl) of the control group, and D is the amount of serum HDL-Chol (mg/dl) of the group to which the therapeutic agent was administered.
The degree of hepatomegaly (i.e. the change rate of the liver weight) was calculated by the following equation. [formula] where E is the liver weight (g) per 100 g of the body weight of the control group, and F is the liver weight (g) per 100 g of the body weight of the group to which the therapeutic agent was administered.

The subject of data set [2] is male ddY mice. As to the kind of experiment: Test 2: Acute toxicity (mortality after seven days). The class given is in vivo. As to conditions: 8000 mg/kg p.o., 10080 min. Here is the method: (§1) The test compounds suspended in 0.5% CMC-Na were administered p.o. to male ddY mice. The acute toxicity was determined based on the mortality after seven days. In respect of the compounds of Examples 1, 9, 10 and 11 of the present invention, the mortality was 0% even at a dose of as high as 8000 mg/kg by oral administration.

The test system of data set [3] is serum lipid. The conditions noted are these: Science, 193, 903 (1976); J. Lipid Res., 12, 596 (1971); cited from earlier work.
A short description of data set [4]: Test 2: Acute toxicity (mortality after seven days). In kind it is in vivo. As to conditions: mouse, in vivo, po, 8000 mg/kg p.o., male ddY mice. On the procedure:
as §1

The conditions of data set [5]: in words; cited from earlier work.
For data set [6], the system named is animals. As to conditions: animal experiments; Svoboda and Azarnoff, Cancer Res., 39, 3419 (1979); cited from earlier work.

Broadly, the mortality is the share of the test organisms that died. Low values mean more survivors, high ones fewer survivors. For `CC/C=C\C/C=C\C/C=C\CCCCCCCCOc1c2ncnc(SCC(=O)OCC)c2nn1C` [Example 11, 2-Methyl-3-linolenyloxy-7-ethoxycarbonylmethylthio-pyrazolo[4,3-d]pyrimidine], in data set [1] (300 mg/kg/day via stomach tube), the “Increase rate of serum HDL-Chol” value came out at 26% and the “Reduction rate of serum Chol.” value turned out to be 83%. Besides, the “Degree of hepatomegaly (change rate of the liver weight)” value in data set [1] is “+20%”. For the same compound, in data set [2], the mortality was 0%.
`Nc1ncnc2[nH]ncc12` [1H-pyrazolo[3,4-d]pyrimidine-4-amine]: the serum lipid reduction result in data set [3] is “function to reduce serum lipid”.
For the compound `CCCCCCCCCCCCCCCCOc1c2ncnc(SCC(=O)OCC)c2nn1C` [Example 1, 2-Methyl-3-n-hexadecyloxy-7-ethoxycarbonylmethylthio-pyrazolo[4,3-d]pyrimidine], in data set [1] (300 mg/kg/day via stomach tube), the change in vivo at 300 mg/kg was 42% and the inhibition in vivo at 300 mg/kg was 58%. Besides, the “Degree of hepatomegaly (change rate of the liver weight)” value in data set [1] is given as “+8%”. Besides, in data set [4], the mortality at 168 h was determined as 0%.
For the compound `O=C(O)c1cccnc1` [nicotinic acid], in data set [5], the “subsidiary ill effects reported” value is “flashing or gastroenteric troubles”.
In the case of `CCOC(=O)C(C)(C)Oc1ccc(Cl)cc1` [Clofibrate, reference compound], in data set [1] (300 mg/kg/day via stomach tube), the change in vivo at 300 mg/kg was 12% and the inhibition in vivo at 300 mg/kg is 44%. Besides, in data set [1], the “Degree of hepatomegaly (change rate of the liver weight)” value is “+22%”. Moreover, the “subsidiary ill effects reported” value in data set [5] is “myalgia or hepatic insufficiency, and they are likely to lead to gallstone formation”. For the same compound, the hepatic carcinoma entry in data set [6] was “brings about hepatic carcinoma on animal experiments”.
For the compound `CCCCCCCC/C=C\CCCCCCCCOc1c2ncnc(SCC(=O)OCC)c2nn1C` [Example 9, 2-Methyl-3-oleyloxy-7-ethoxycarbonylmethylthio-pyrazolo[4,3-d]pyrimidine], in data set [1] (300 mg/kg/day via stomach tube), the change in vivo at 300 mg/kg worked out at 55% and the inhibition in vivo at 300 mg/kg stood at 66%. In addition, in data set [1], the “Degree of hepatomegaly (change rate of the liver weight)” value is on record as “+5%”. Also, in data set [4], the mortality at 168 h stood at 0%.
